Measured values published in US5508180A, “Biocatalytic oxidation using soybean peroxidase” (Enzymol International, Inc., priority 1994, dated 1996).

Tests used:
[1] = target: T1, soybean peroxidase (Glycine max, UniProt O22443); assay: Demethylation (oxidation) of methoxybenzenes by soybean peroxidase, absorbance of quinone products; format: biochemical; conditions: for dA per minute (289 nm) / dA per minute (286 nm) / dA per minute (250 nm) / dA per minute (310 nm): pH 2
T1 construct: secreted heme glycoprotein, reported 37 kDa
Protocol: 0.1 ml soybean peroxidase (120 purpurogallin units/ml) stock solution was added to 3 ml veratryl alcohol solution (1 g veratryl alcohol in 750 ml water) and vortexed in a test tube. 20 μl peroxide stock solution was added, mixed and the solution poured into a 1 cm path, 4 ml quartz cuvette. Using a Shimadzu UV-160 double beam recording spectophotometer, the change in absorbance of the sample compared to a reference cuvette containing 3 ml veratryl alcohol solution only was monitored every minute by scanning wavelengths from 500 to 200 nm. The peak wavelength of 308 nm was identified as veratryl aldehyde and was used for further monitoring. The kinetics of the reaction were determined from the linear portion of the increase in absorbance.
Using assay methods described in Example 15, three methoxybenzenes were tested for oxidation by soybean peroxidase (SBP). These compounds were: 1,4-Dimethoxybenzene (DMB), 1,2,3-Trimethoxybenzene (TMB) and 1,3,5-Trimethoxybenzene (TMB). Stock solutions were prepared by heating 1 g (0.5g 1,3,5-TMB) in 750 ml water to 60 deg C on a stirring hot plate, allowing the solution to cool to room temperature and adjusting the pH to 2 with HCl. Assays were performed as described in Example 1. Initially, a scan of wavelengths from 500 to 200 nm every minute was done during each substrate oxidation to find suitable wavelengths to monitor for the corresponding quinone products.
For example, a comparison of the rates of oxidation of 1,4-dimethoxybenzene at pH 2 where the pH was adjusted with HCl in one case and with HNO3 in a second case is shown in Table 11.

[2] = target: T1, soybean peroxidase; assay: Oxygen-mediated hydroxylation of tyrosine by soybean peroxidase with dihydroxyfumaric acid, loss of DHF absorbance; format: biochemical
Protocol: Tyrosine, 0.2 g was added to 150 ml water and HCl was added until the tyrosine dissolved at about pH 3. Dihydroxyfumaric acid (DHF), 0.44 g was added to 100 ml water and dilute (1%) sodium hydroxide was added until the acid dissolved at about pH 3.
Hydroxylation of tyrosine was achieved by mixing 2 ml tyrosine solution, 1 ml 0.1M buffer selected from a range of pH 1-13, 0.1 ml soybean peroxidase at 10 mg/ml and last, adding 0.1 ml DHF stock solution. The reference curvette contained the same mixture of tyrosine, buffer and DHF stock solutions. No hydrogen peroxide was used in these reaction. Dissolved oxygen from air served as the source of oxidant. Peak wavelength corresponding to DHF, determined by DHF absorbance in the solution, was monitored for loss in absorbance, indicating consumption of the reducing agent and hydroxylation of the phenol. Oxidation was followed by monitoring wavelengths from 500 to 200 nm at zero time and 1 minute of reaction. The absorbance difference at the wavelength corresponding to loss of DHF was recorded.

T1 sequence (O22443 27-332): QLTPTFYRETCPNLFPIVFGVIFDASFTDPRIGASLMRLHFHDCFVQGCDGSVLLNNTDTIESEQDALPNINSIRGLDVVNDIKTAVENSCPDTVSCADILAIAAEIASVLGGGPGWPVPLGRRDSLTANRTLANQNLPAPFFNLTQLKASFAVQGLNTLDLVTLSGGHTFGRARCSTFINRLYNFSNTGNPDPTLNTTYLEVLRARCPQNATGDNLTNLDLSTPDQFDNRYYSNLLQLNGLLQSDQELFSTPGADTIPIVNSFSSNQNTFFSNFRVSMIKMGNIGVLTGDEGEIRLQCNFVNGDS

COc1cccc(OC)c1OC [1,2,3-TMB, 1,2,3-Trimethoxybenzene]
dA per minute (289 nm) ([1]; 25 °C): 0.0147 | dA per minute (289 nm) ([1]; 35 °C): 0.0272 | dA per minute (289 nm) ([1]; 45 °C): 0.0893 | dA per minute (289 nm) ([1]; 55 °C): 1.1161 | dA per minute (289 nm) ([1]; 65 °C): 0.0301 | dA per minute (289 nm) ([1]; 75 °C): 0.0142

COc1cc(OC)cc(OC)c1 [1,3,5-TMB, 1,3,5-Trimethoxybenzene]
dA per minute (286 nm) ([1]; 35 °C): 0.0282 | dA per minute (286 nm) ([1]; 45 °C): 0.474 | dA per minute (286 nm) ([1]; 55 °C): 0.097 | dA per minute (286 nm) ([1]; 65 °C): 0.1724 | dA per minute (286 nm) ([1]; 75 °C): 0.0262

COc1ccc(OC)cc1 [1,4-DMB, 1,4-Dimethoxybenzene]
dA per minute (250 nm) ([1]; 25 °C): 1.0134 | dA per minute (310 nm) ([1]; 25 °C): 0.3566 | dA per minute (250 nm) ([1]; 35 °C): 1.1306 | dA per minute (310 nm) ([1]; 35 °C): 0.3942 | dA per minute (250 nm) ([1]; 45 °C): 1.817 | dA per minute (310 nm) ([1]; 45 °C): 0.745 | dA per minute (250 nm) ([1]; 55 °C): 2.73 | dA per minute (310 nm) ([1]; 55 °C): 1.088 | dA per minute (250 nm) ([1]; 65 °C): 2.99 | dA per minute (310 nm) ([1]; 65 °C): 0.437 | dA per minute (250 nm) ([1]; 75 °C): 0.883 | dA per minute (310 nm) ([1]; 75 °C): 0.129 | dA per minute (250 nm) ([1]; 85 °C): 0.0619 | dA per minute (310 nm) ([1]; 85 °C): 0.0237 | dA per minute (250 nm) ([1]; 95 °C): 0.0777 | dA per minute (310 nm) ([1]; 95 °C): 0.0296 | dA 250 nm per min ([1]; pH 2 adjusted with HCl): 1.275 | dA 310 nm per min ([1]; pH 2 adjusted with HCl): 0.3273 | dA 250 nm per min ([1]; pH 2 adjusted with HNO3): 0.7202 | dA 310 nm per min ([1]; pH 2 adjusted with HNO3): 0.2934

N[C@@H](Cc1ccc(O)cc1)C(=O)O [tyrosine, Tyrosine]
dA per min ([2]; pH 1, λ 310 nm, loss of DHF absorbance): 0 | dA per min ([2]; pH 2, λ 315 nm, loss of DHF absorbance): 0.012 | dA per min ([2]; pH 3, λ 321 nm, loss of DHF absorbance): 0.726 | dA per min ([2]; pH 3.5, λ 318 nm, loss of DHF absorbance): 0.886 | dA per min ([2]; pH 4, λ 319 nm, loss of DHF absorbance): 0.065 | dA per min ([2]; pH 4.5, λ 320 nm, loss of DHF absorbance): 0.391 | dA per min ([2]; pH 5, λ 303 nm, loss of DHF absorbance): 1.897 | dA per min ([2]; pH 5.5, λ 302 nm, loss of DHF absorbance): 0.971 | dA per min ([2]; pH 6, λ 302 nm, loss of DHF absorbance): 2.226 | dA per min ([2]; pH 6.5, λ 302 nm, loss of DHF absorbance): 2.134 | dA per min ([2]; pH 7, interference from Tris buffer): 0 | dA per min ([2]; pH 7.5, interference from Tris buffer): 0 | dA per min ([2]; pH 8, interference from Tris buffer): 0 | dA per min ([2]; pH 8.5, λ 305 nm, loss of DHF absorbance): 1.098 | dA per min ([2]; pH 9, λ 304 nm, loss of DHF absorbance): 1.705 | dA per min ([2]; pH 9.5, λ 302 nm, loss of DHF absorbance): 1.66 | dA per min ([2]; pH 10, λ 302 nm, loss of DHF absorbance): 0.768 | dA per min ([2]; pH 10.5, λ 302 nm, loss of DHF absorbance): 1.372 | dA per min ([2]; pH 11, λ 302 nm, loss of DHF absorbance): 1.988 | dA per min ([2]; pH 11.5, λ 305 nm, loss of DHF absorbance): 0.075 | dA per min ([2]; pH 12, λ 305 nm, loss of DHF absorbance): 0.069 | dA per min ([2]; pH 13, λ 305 nm, loss of DHF absorbance): 0
